Measured values taken from patent EP4553080A1, “NUCLEOSIDE DERIVATIVES AS ANTIVIRAL AGENTS AGAINST CORONAVIRUSES” (Ustav Organicke Chemie a Biochemie AV CR, v.v.i., priority 2023, dated 2025).
pIC50: −log10 of the molar value.

Target: nsp14 methyltransferase from SARS-CoV-2 (Severe acute respiratory syndrome coronavirus 2, UniProt P0DTD1)
Experiment: Nsp14 MTase activity inhibition in vitro (EchoMS assay)
Format: biochemical
Conditions: recombinant nsp14 protein expressed in E. coli; dose-response curve

| Structure (SMILES) | pIC50 |
| --- | --- |
| Cc1noc(-c2ccccc2)c1CSC[C@H]1O[C@@H](n2nc(-c3ccc(C#N)cc3)c3c(N)ncnc32)[C@H](O)[C@@H]1O [Compound 219b, 4-(4-Amino-1-((2R,3R,4S,5S)-3,4-dihydroxy-5-((((3-methyl-5-phenylisoxazol-4-yl)methyl)thio)methyl)tetrahydrofuran-2-yl)-1H-pyrazolo[3,4-d]pyrimidin-3-yl)benzonitrile] | 7.00 to 7.52 |
| Cc1noc(-c2ccc(N)cc2)c1CSC[C@H]1O[C@@H](n2ccc3c(N)ncnc32)[C@H](O)[C@@H]1O [Compound 111, (2R,3R,4S,5S)-2-(4-Amino-7H-pyrrolo[2,3-d]pyrimidin-7-yl)-5-((((5-(4-aminophenyl)-3-methylisoxazol-4-yl)methyl)thio)methyl)tetrahydrofuran-3,4-diol] | 7.00 to 7.52 |
| Nc1ncnc2c1ccn2[C@@H]1O[C@H](CSCc2csnc2-c2ccccc2)[C@@H](O)[C@H]1O [Compound 105c, (2R,3R,4S,5S)-2-(4-Amino-7H-pyrrolo[2,3-d]pyrimidin-7-yl)-5-((((3-phenylisothiazol-4-yl)methyl)thio)methyl)tetrahydrofuran-3,4-diol] | 5.70 to 6.30 |
| Cn1cnc(-c2ccccc2)c1CSC[C@H]1O[C@@H](n2cc(C#Cc3cncnc3)c3c(N)ncnc32)[C@H](O)[C@@H]1O [Compound 237c, (2R,3R,4S,5S)-2-(4-Amino-5-(pyrimidin-5-ylethynyl)-7H-pyrrolo[2,3-d]pyrimidin-7-yl)-5-((((1-methyl-4-phenyl-1H-imidazol-5-yl)methyl)thio)methyl)tetrahydrofuran-3,4-diol] | 7.00 to 7.52 |
| Cc1noc(-c2ccccc2)c1CSC[C@H]1O[C@@H](n2cc(C3=CCC(C#N)CC3)c3c(N)ncnc32)[C@H](O)[C@@H]1O (stereo partly drawn) [Compound 141b, 4-(4-Amino-7-((2R,3R,4S,5S)-3,4-dihydroxy-5-((((3-methyl-5-phenyhsoxazol-4-yl)methyl)thio)methyl)tetrahydrofuran-2-yl)-7H-pyrrolo[2,3-d]pyrimidin-5-yl)cyclohex-3-ene-1-carbonitrile] | 7.52 to 8.00 |
| CCC(C)c1cn([C@@H]2O[C@H](CSCc3c(C)noc3-c3ccccc3)[C@@H](O)[C@H]2O)c2ncnc(N)c12 (stereo partly drawn) [Compound 130b, (2R,3R,4S,5S)-2-(4-Amino-5-(sec-butyl)-7H-pyrrolo[2,3-d]pyrimidin-7-yl)-5-((((3-methyl-5-phenylisoxazol-4-yl)methyl)thio)methyl)tetrahydrofuran-3,4-diol] | 6.30 to 7.00 |
| Cc1noc(-c2ccccc2)c1CSC[C@H]1O[C@@H](n2cc(-c3ccccc3)c3c(N)ncnc32)[C@H](O)[C@@H]1O [Compound 149, (2R,3R,4S,5S)-2-(4-Amino-5-phenyl-7H-pyrrolo[2,3-d]pyrimidin-7-yl)-5-((((3-methyl-5-phenylisoxazol-4-yl)methyl)thio)methyl)tetrahydrofuran-3,4-diol] | 7.00 to 7.52 |
| Cc1noc(-c2ccccc2)c1CSC[C@H]1O[C@@H](n2cc(C#Cc3ncc[nH]3)c3c(N)ncnc32)[C@H](O)[C@@H]1O [Compound 178b, (2R,3R,4S,5S)-2-(5-((1H-Imidazol-2-yl)ethynyl)-4-amino-7H-pyrrolo[2,3-d]pyrimidin-7-yl)-5-((((3-methyl-5-phenylisoxazol-4-yl)methyl)thio)methyl)tetrahydrofuran-3,4-diol] | 7.00 to 7.52 |
| Cc1noc(-c2ccccc2)c1CSC[C@H]1O[C@@H](n2ccc3c(N)nc(F)nc32)[C@H](O)[C@@H]1O [Compound 198, (2R,3R,4S,5S)-2-(4-Amino-2-fluoro-7H-pyrrolo[2,3-d]pyrimidin-7-yl)-5-((((3-methyl-5-phenylisoxazol-4-yl)methyl)thio)methyl)tetrahydrofuran-3,4-diol] | 7.00 to 7.52 |
| Cc1noc(-c2ccccc2)c1CSC[C@H]1O[C@@H](n2cc(C#Cc3cncnc3)c3c(N)ncnc32)[C@H](O)[C@@H]1O [Compound 172b] | 7.52 to 8.00 |
| Cc1noc(-c2ccc3c(c2)OCO3)c1CSC[C@H]1O[C@@H](n2ccc3c(N)ncnc32)[C@H](O)[C@@H]1O [Compound 96c, (2R,3R,4S,5S)-2-(4-Amino-7H-pyrrolo[2,3-d]pyrimidin-7-yl)-5-((((5-(benzo[d][1,3]dioxol-5-yl)-3-methylisoxazol-4-yl)methyl)thio)methyl)tetrahydrofuran-3,4-diol] | 7.52 to 8.00 |
| Cc1noc(-c2cscn2)c1CSC[C@H]1O[C@@H](n2ccc3c(N)ncnc32)[C@H](O)[C@@H]1O [Compound 101c, (2R,3R,4S,5S)-2-(4-Amino-7H-pyrrolo[2,3-d]pyrimidin-7-y1)-5-((((3-methyl-5-(thiazol-4-y1)isoxazo1-4-yl)methyl)thio)methyl)tetrahydrofuran-3,4-diol] | 7.00 to 7.52 |
| Cc1noc(-c2ccccc2)c1CSC[C@H]1O[C@@H](n2cc(-c3ccc([N+](=O)[O-])cc3)c3c(N)ncnc32)[C@H](O)[C@@H]1O [Compound 144b] | 7.00 to 7.52 |
| Cc1cncc(-c2ccccc2)c1CSC[C@H]1O[C@@H](n2ccc3c(N)ncnc32)[C@H](O)[C@@H]1O [Compound 57c, (2R,3R,4S,5S)-2-(4-Amino-7H-pyrrolo[2,3-d]pyrimidin-7-yl)-5-((((3-methyl-5-phenylpyridin-4-yl)methyl)thio)methyl)tetrahydrofuran-3,4-diol] | 7.00 to 7.52 |
| Cc1noc(-c2ccccc2)c1CSC[C@H]1O[C@@H](n2nc(-c3cccc(C#N)c3)c3c(N)ncnc32)[C@H](O)[C@@H]1O [Compound 220b, 3-(4-Amino-1-((2R,3R,4S,5S)-3,4-dihydroxy-5-((((3-methyl-5-phenylisoxazol-4-yl)methyl)thio)methyl)tetrahydrofuran-2-yl)-1H-pyrazolo[3,4-d]pyrimidin-3-yl)benzonitrile] | 6.30 to 7.00 |
| Cc1noc(-c2ccccc2)c1CSC[C@H]1O[C@@H](n2cc(C#Cc3ccccc3)c3c(N)ncnc32)[C@H](O)[C@@H]1O [Compound 180, (2R,3R,4S,5S)-2-(4-Amino-5-(phenylethynyl)-7H-pyrrolo[2,3-d]pyrimidin-7-yl)-5-((((3-methyl-5-phenylisoxazol-4-yl)methyl)thio)methyl)tetrahydrofuran-3,4-diol] | 7.00 to 7.52 |
| Cn1cnc(-c2ccccc2)c1CSC[C@H]1O[C@@H](n2cc(-c3ccc(C#N)cc3)c3c(N)ncnc32)[C@H](O)[C@@H]1O [Compound 230b, 4-(4-Amino-7-((2R,3R,4S,5S)-3,4-dihydroxy-5-((((1-methyl-4-phenyl-1H-imidazol-5-yl)methyl)thio)methyl)tetrahydrofuran-2-yl)-7H-pyrrolo[2,3-d]pyrimidin-5-yl)benzonitrile] | 6.30 to 7.00 |
| Cn1nnc(-c2ccccc2)c1CSC[C@H]1O[C@@H](n2ccc3c(N)ncnc32)[C@H](O)[C@@H]1O [Compound 55c, (2R,3R,4S,5S)-2-(4-Amino-7H-pyrrolo[2,3-d]pyrimidin-7-yl)-5-((((1-methyl-4-phenyl-1H-1,2,3-triazol-5-yl)methyl)thio)methyl)tetrahydrofuran-3,4-diol] | 7.00 to 7.52 |
| Cc1noc(-c2ccccc2)c1CSC[C@H]1O[C@@H](n2cc(C#Cc3cccnc3)c3c(N)ncnc32)[C@H](O)[C@@H]1O [Compound 170b, (2R,3R,4S,5S)-2-(4-Amino-5-(pyridin-3-ylethynyl)-7H-pyrrolo[2,3-d]pyrimidin-7-yl)-5-((((3-methyl-5-phenylisoxazol-4-yl)methyl)thio)methyl)tetrahydrofuran-3,4-diol] | 7.52 to 8.00 |
| CCc1onc(-c2ccccc2)c1CSC[C@H]1O[C@@H](n2ccc3c(N)ncnc32)[C@H](O)[C@@H]1O [Compound 106c, (2R,3R,4S,5S)-2-(4-Amino-7H-pyrrolo[2,3-d]pyrimidin-7-yl)-5-((((5-ethyl-3-phenyllsoxazol-4-yl)methyl)thio)methyl)tetrahydrofuran-3,4-diol] | 6.30 to 7.00 |
| CCc1cn([C@@H]2O[C@H](CSCc3c(C)noc3-c3ccccc3)[C@@H](O)[C@H]2O)c2ncnc(N)c12 [Compound 142, (2R,3R,4S,5S)-2-(4-Amino-5-ethyl-7H-pyrrolo[2,3-d]pyrimidin-7-yl)-5-((((3-methyl-5-phenylisoxazol-4-yl)methyl)thio)methyl)tetrahydrofuran-3,4-diol] | 7.00 to 7.52 |
| Cc1noc(-c2ccccc2)c1CSC[C@H]1O[C@@H](n2cc(-c3cncn3C)c3c(N)ncnc32)[C@H](O)[C@@H]1O [Compound 155, (2R,3R,4S,5S)-2-(4-Amino-5-(1-methyl-1H-imidazol-5-yl)-7H-pyrrolo[2,3-d]pyrimidin-7-yl)-5-((((3-methyl-5-phenylisoxazol-4-yl)methyl)thio)methyl)tetrahydrofuran-3,4-diol] | 7.00 to 7.52 |
| Cc1noc(-c2ccccc2)c1CSC[C@H]1O[C@@H](n2cc(Sc3ccccc3)c3c(N)ncnc32)[C@H](O)[C@@H]1O [Compound 189b, (2R,3R,4S,5S)-2-(4-Amino-5-(phenylthio)-7H-pyrrolo[2,3-d]pyrimidin-7-yl)-5-((((3-methyl-5-phenylisoxazol-4-yl)methyl)thio)methyl)tetrahydrofuran-3,4-diol] | 7.00 to 7.52 |
| Cc1noc(-c2ccccc2)c1CSC[C@H]1O[C@@H](n2cc(-c3ccc(OC(F)(F)F)cc3)c3c(N)ncnc32)[C@H](O)[C@@H]1O [Compound 146b, (2R,3R,4S,5S)-2-(4-Amino-5-(4-(trifluoromethoxy)phenyl)-7H-pyrrolo[2,3-d]pyrimidin-7-yl)-5-((((3-methyl-5-phenylisoxazol-4-yl)methyl)thio)methyl)tetrahydrofuran-3,4-diol] | 6.30 to 7.00 |
| Cc1noc(-c2ccccc2)c1CSC[C@H]1O[C@@H](n2cc(C(C)C)c3c(N)ncnc32)[C@H](O)[C@@H]1O [Compound 129b] | 6.30 to 7.00 |
| Cc1noc(-c2ccccc2)c1CSC[C@H]1O[C@@H](n2cc(CC3CCCCC3)c3c(N)ncnc32)[C@H](O)[C@@H]1O [Compound 135b, (2R,3R,4S,5S)-2-(4-Amino-5-(cyclohexylmethyl)-7H-pyrrolo[2,3-d]pyrimidin-7-yl)-5-((((3-methyl-5-phenylisoxazol-4-yl)methyl)thio)methyl)tetrahydrofuran-3,4-diol] | 5.70 to 6.30 |
| Cc1ccc(-c2onc(C)c2CSC[C@H]2O[C@@H](n3ccc4c(N)ncnc43)[C@H](O)[C@@H]2O)cc1C [Compound 95c, (2R,3R,4S,5S)-2-(4-Amino-7H-pyrrolo[2,3-d]pyrimidin-7-yl)-5-((((5-(3,4-dimethylphenyl)-3-methylisoxazol-4-yl)methyl)thio)methyl)tetrahydrofuran-3,4-diol] | 7.52 to 8.00 |
